Results from article PMC6476888, “Design and synthesis of anticancer 1-hydroxynaphthalene-2-carboxanilides with a p53 independent mechanism of action” (Scientific Reports, 2019).
Read-outs that look alike come from different tables or passages of the source.

Columns and labels:
HCT116^+/+ = assay: Antiproliferative assay (MTS, 72 h) on HCT116 wild type; type: cell-based, human; settings: MTS, 72 h incubation, read-out: Activity IC50 HCT116^+/+
Method: (§1) All of the synthesized compounds were tested for their antiproliferative activity against human colon cancer (Table 1). We used both the wild-type and p53-negative cell lines (HCT116^+/+ and HCT116^−/−, respectively). Mutations in the TP53 gene are present in more than 50% of all cancers and often specifically correspond to a difficult therapy, resistance or a bad prognosis[60]–[63]. The active compounds were additionally tested for their cytotoxicity against normal human fibroblasts. We used 5-fluorouracil (5-FLU), doxorubicin (DOX) and CP-31398 as the standards. 5-FLU is one of the first antimetabolites that was dedicated for cancer treatment and is still used for a wide range of cancers including colon carcinoma. Doxorubicin is a DNA topoisomerase II poison with a high intercalating potency, which is able to induce apoptosis through the p53 pathway. Although DOX has been described as being ineffective in some p53 mutants, its level of activity against the p53 null lines is similar. CP-31398, on the other hand, is an experimental drug in the clinical phase and its mechanism of action is through the reactivation some of p53 mutants. Its activity against the p53 null cell lines is greatly diminished and is actually lower than its cytotoxicity.
(§2) The human colon cancer cell line HCT116 wild type was obtained from ATCC and the normal human fibroblast cell lines NHDF were obtained from PromoCell. The human colon cancer cell line HCT116 with a p53 deletion (p53^−/−) was kindly provided by Prof. M. Rusin from the Maria Sklodowska-Curie Memorial Cancer Centre and Institute of Oncology in Gliwice, Poland[89]. The cells were grown as monolayer cultures in Dulbecco’s modified Eagle’s medium with the antibiotic gentamicin (200 μL/100 mL medium) in 75 cm^2 flasks (Nunc). The DMEM for the HCT116 were supplemented with 12% heat-inactivated fetal bovine serum (Sigma-Aldrich, St. Louis, MO, USA) and for NHDF with 15% non-inactivated fetal bovine serum (Sigma Aldrich, St. Louis, MO, USA). The cells were cultured under standard conditions at 37 °C in a humidified atmosphere at 5% CO2.
(§3) The cells were seeded in 96-well plates (Nunc) at a density of 5,000 cells/well (HCT116) and 4,000 cells/well (NHDF) and incubated at 37 °C for 24 h. The assay was performed following a 72 h incubation with varying concentrations of the compounds that were being tested. Then, 20 µL of CellTiter 96® AQueous One Solution-MTS (Promega) was added to each well (with 100 µL DMEM without phenol red) and incubated for 1 h at 37 °C. The optical densities of the samples were analyzed at 490 nm using a Synergy 4 multi-plate reader (BioTek, Winooski, VT, USA). The results are expressed as the percentage of the control and were calculated as the inhibitory concentration (IC50) values (using a GraphPad Prism 7). The IC50 parameter was defined as the compound concentration that was necessary to reduce the proliferation of cells to 50% of the untreated control. Each individual compound was tested in triplicate in a single experiment with each experiment being repeated three or four times.

HCT116^−/− = assay: Antiproliferative assay (MTS, 72 h) on HCT116 with p53 deletion; type: cell-based, human; settings: MTS, 72 h incubation
Method: as §1, §2, §3

NHDF = assay: Cytotoxicity (MTS, 72 h) against normal human fibroblasts; type: cell-based; settings: MTS, 72 h incubation
Method: as §1, §2, §3

CT-DNA = assay: Spectrophotometric DNA intercalation assay; type: binding, calf; settings: for Changes in absorbance: bound to CT-DNA (18 µM), 1.5 h 37 °C, Tris-HCl pH 7.9; for % hypochromism / Δε: bound to CT-DNA; for red shift: wavelengths of maximum absorption, individual vs DNA-bound compound
Text: The fused aromatic rings of the naphthalene moiety and halogen substituents in aniline may guarantee good intercalating properties[71],[72]. On the other hand, the intercalation of DNA may explain the high activity against both the wild-type and p53 mutants as was reported for a series of styrylquinolines. Binding to DNA causes the bases to mismatch or cleave, which results in the arrest of the cell cycle and apoptosis. The effectiveness of the p53 system is one of the most important factors in the response to therapy. We tested the intercalating properties of the selected compounds in a spectrophotometric assay on calf-thymus DNA. The absorption spectra of the tested compounds in the absence and presence of CT-DNA are presented in Figure S1 Supplementary Information and the spectral properties with doxorubicine and CP-31398 are summarized in Table 2.
For the DNA binding studies, Calf-thymus DNA (CT-DNA) was purchased from Sigma- Aldrich. The lyophilized CT-DNA was dissolved in 10 mM Tris-HCl, pH 7.9, mixed gently and left overnight at 4 °C. The purity of the CT-DNA solution was determined by measuring the ratio of UV absorbance at 260 and 280 nm. […] Then, the concentration of CT-DNA was determined from the absorbance at 260 nm using an extinction coefficient of 6600 M^−1cm^−1. The tested compounds including DOX and CP-31398 were dissolved to a concentration of 8.35 mM in DMSO, which was then used as the stock solution for preparing the various concentrations (25, 12.5, 6 and 3 µM) in 1 mL in 10 mM of Tris-HCl (pH 7.9). Afterwards, 18 µM CT-DNA was added to the prepared solutions, which were incubated for 1.5 h at 37 °C with occasional vortexing. The absorption spectra were measured using a Hitachi U-2900 spectrophotometer in the range of 200–500 nm. All absorption spectra were imported into OriginPro 8.0 and compared.

[1] = system: p53/p21 system in the HCT116 cells; assay: Western blot of p53/p21 activation; type: cell-based, human; settings: wild-type HCT116, 12 and 24 h
Method: Further exploration of the cell death model was performed by a western blot analysis of protein activation in response to incubation with the tested compound (Figs 6, 7). […] The proapoptotic activation of the p53/p21 system was noticeable after the first 12 hours and then became stronger after 24 h. This effect was not observed in the case of the p53 null cells, which were unable to synthesize this protein.
The HCT116 cells were seeded in 3-cm Petri dishes (Nunc) at a density of 0.5·10^6 cells/well and incubated overnight. […] The cells were harvested by trypsinization and washed with cold PBS. Next, the cells were centrifuged and suspended in an RIPA buffer (Thermo-Fisher Scientific) containing Halt Protease Inhibitor Cocktail (Thermo-Fisher Scientific), Halt Phosphatase Inhibitor Cocktail (Thermo-Fisher Scientific) along with 0.5 M EDTA and lysed for 20 min on ice. Then, the lysates were sonicated, centrifuged at 10,000 rpm for 10 min at 4 °C and the supernatants were collected for further analysis. The protein concentration was determined using a Micro BCA™ Protein Assay Kit (Thermo-Fisher Scientific, Waltham, MA, USA c) according to the manufacturer’s instructions. Equal amounts of the proteins (20 μg) were electrophoresed on SDS-Page gels and transferred onto nitrocellulose membranes. The membranes were blocked in 5% non-fat milk prepared in PBS containing 0.1% Tween-20 (TPBS) for 1 h. After blocking, the membranes were incubated with specific primary antibodies: p21^Waf1/Cip1, p53, cytochrome c, caspase-8, caspase-9, AIF, PARP, GAPDH and β-Actin overnight at 4 °C, and then washed and incubated with horseradish peroxidase (HRP)-conjugated secondary antibodies for 1 h at room temperature. All of the antibodies were purchased from CellSignaling (Danvers, MA, USA) and were diluted 1:1000 in 5% milk in TPBS. Finally, the membranes were washed and incubated with a SuperSignal™ West Pico Chemiluminescent Substrate (Thermo-Fisher Scientific). The chemiluminescence signals were captured using a ChemiDoc™ XRS+ System (Bio-Rad Laboratories, Hercules, CA, USA). The experiments were performed at least three times. Densitometric analysis was performed using ImageJ 1.41 software (Wayne Rasband, National Institutes of Health, USA).

[2] = for CP-31398 first value (312 nm band)

Row | SMILES | IC50 (HCT116^+/+) [µM] | IC50 (HCT116^−/−) [µM] | IC50 (NHDF) [µM] | Changes in absorbance (CT-DNA) | % hypochromism (CT-DNA; [2]) [%] | Δε (CT-DNA; [2]) [M⁻¹ cm⁻¹] | % hypochromism (CT-DNA; second value (350 nm band)) [%] | Δε (CT-DNA; second value (350 nm band)) [M⁻¹ cm⁻¹] | red shift (CT-DNA) [nm] | IC50 (HCT116^+/+; Homo sapiens, HCT-116) [µM] | IC50 (HCT116^−/−; Homo sapiens, HCT-116) [µM] | IC50 (NHDF; Homo sapiens, NHDF) [µM] | p21 protein amount [1] | p53 protein amount / activation [1]
1 | COc1ccc(/C=C/c2nc(NCCCN(C)C)c3ccccc3n2)cc1 [CP-31398, reference compound] | 18.6 ± 0.92 | 26.3 ± 1.41 | 12.3 ± 0.54 | hypochromism | 41.4 | 1515.6 | 37.4 | 1693.3 | 0 | – | – | – | – | –
2 | COc1cccc2c1C(=O)c1c(O)c3c(c(O)c1C2=O)C[C@@](O)(C(=O)CO)C[C@@H]3O[C@H]1C[C@H](N)[C@H](O)[C@H](C)O1 [DOX, doxorubicin, reference compound] | – | – | – | hypochromism | 34.2 | 3235.6 | – | – | 10 | 0.34 ± 0.04 | 0.38 ± 0.03 | 3.38 ± 1.29 | dramatic increase | dramatic increase
